In BindingDB's records for doi:10.1074/jbc.M805358200 (University of Pittsburgh, 2008):

What was measured:
Test in all cases: IMAP-Based HTS FP Assay/ TR-FRET Assay
[1] = molecular target: RAC-alpha serine/threonine-protein kinase (Homo sapiens, UniProt P31749)
Text: (§1) An IMAP-based PKD HTS FR assay was used for primary HTS of the PMLSC library to identify hit compounds and subsequent secondary hit confirmation studies.

[2] = molecular target: Serine/threonine-protein kinase PLK1 (Homo sapiens, UniProt P53350)
Text: as §1

[3] = molecular target: T1, Serine/threonine-protein kinase D1 (Homo sapiens, UniProt Q15139)
T1 sequence (Q15139 whole entry): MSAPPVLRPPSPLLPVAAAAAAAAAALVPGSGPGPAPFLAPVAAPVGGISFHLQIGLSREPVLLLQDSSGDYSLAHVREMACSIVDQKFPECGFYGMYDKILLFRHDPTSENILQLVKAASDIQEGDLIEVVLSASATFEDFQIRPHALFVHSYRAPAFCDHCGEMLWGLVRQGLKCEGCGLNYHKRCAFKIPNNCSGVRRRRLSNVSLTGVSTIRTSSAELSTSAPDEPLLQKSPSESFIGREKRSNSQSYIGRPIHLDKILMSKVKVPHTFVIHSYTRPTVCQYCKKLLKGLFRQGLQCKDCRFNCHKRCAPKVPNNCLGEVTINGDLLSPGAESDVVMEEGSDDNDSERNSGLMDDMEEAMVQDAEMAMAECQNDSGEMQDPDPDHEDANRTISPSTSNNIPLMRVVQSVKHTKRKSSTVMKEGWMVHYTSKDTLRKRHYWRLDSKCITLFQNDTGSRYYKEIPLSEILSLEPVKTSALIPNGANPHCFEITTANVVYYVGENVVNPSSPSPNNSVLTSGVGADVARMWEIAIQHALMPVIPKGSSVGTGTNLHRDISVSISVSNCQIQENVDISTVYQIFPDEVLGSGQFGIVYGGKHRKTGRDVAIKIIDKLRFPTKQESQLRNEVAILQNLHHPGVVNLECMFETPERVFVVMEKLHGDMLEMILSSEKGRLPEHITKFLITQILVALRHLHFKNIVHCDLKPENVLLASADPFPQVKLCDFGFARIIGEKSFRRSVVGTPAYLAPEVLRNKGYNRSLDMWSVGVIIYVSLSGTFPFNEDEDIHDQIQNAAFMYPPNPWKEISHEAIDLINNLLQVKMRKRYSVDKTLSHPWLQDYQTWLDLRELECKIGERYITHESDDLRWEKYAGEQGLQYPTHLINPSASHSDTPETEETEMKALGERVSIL
Text: as §1

[4] = molecular target: Cyclin-dependent kinase 7 (Homo sapiens, UniProt P50613)
Text: as §1

Sequence of Cyclin-dependent kinase 7 (P50613 whole entry): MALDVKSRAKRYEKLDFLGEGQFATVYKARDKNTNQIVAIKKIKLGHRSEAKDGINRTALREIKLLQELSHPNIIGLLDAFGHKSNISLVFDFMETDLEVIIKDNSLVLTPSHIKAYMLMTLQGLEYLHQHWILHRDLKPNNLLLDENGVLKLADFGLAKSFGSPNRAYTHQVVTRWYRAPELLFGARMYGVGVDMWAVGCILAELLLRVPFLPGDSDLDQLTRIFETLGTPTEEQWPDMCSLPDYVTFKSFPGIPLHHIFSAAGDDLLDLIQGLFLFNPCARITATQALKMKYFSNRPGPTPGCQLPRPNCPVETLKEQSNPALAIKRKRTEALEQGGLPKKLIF
Sequence of Serine/threonine-protein kinase PLK1 (P53350 whole entry): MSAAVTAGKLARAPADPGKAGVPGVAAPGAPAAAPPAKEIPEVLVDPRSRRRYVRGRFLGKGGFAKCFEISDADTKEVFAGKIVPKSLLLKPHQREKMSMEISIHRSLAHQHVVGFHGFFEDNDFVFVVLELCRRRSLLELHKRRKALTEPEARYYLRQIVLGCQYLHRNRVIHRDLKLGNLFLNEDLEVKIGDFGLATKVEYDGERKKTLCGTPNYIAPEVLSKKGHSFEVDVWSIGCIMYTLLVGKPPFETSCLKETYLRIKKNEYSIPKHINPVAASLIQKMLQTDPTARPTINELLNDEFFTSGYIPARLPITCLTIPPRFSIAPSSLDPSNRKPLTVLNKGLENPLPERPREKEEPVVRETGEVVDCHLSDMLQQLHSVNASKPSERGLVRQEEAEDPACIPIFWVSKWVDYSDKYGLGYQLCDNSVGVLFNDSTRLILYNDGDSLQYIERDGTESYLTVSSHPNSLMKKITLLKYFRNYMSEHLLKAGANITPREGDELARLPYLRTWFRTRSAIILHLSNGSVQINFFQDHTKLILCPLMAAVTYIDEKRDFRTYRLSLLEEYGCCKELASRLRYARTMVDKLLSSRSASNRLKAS
Sequence of RAC-alpha serine/threonine-protein kinase (P31749 whole entry): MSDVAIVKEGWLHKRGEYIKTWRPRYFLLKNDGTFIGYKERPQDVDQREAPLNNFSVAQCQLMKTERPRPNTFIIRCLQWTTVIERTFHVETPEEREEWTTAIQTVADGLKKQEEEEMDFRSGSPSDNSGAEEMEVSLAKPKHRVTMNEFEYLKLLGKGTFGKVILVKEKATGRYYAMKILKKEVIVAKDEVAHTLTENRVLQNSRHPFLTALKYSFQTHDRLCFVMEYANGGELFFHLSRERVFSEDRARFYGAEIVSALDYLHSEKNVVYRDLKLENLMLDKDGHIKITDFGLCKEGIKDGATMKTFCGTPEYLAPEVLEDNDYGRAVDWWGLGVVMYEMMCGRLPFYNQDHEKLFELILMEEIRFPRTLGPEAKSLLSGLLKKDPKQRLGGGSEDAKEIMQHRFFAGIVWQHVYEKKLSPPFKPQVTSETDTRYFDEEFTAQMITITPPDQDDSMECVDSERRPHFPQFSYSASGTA

Row | SMILES | IC50 [1] [µM] | IC50 [2] [µM] | IC50 [3] [µM] | IC50 [4] [µM]
1 | O=C1NCCCc2c1oc1ccc(O)cc21 [7-hydroxy-2,3,4,5-tetrahydro-[1]benzofuro[2,3-c]azepin-1-one] | > 50 | 20.3 | 0.5 | 15.3
2 | O=c1oc2ccc(O)cc2c2c1NCCC2 [CID 797718] | > 50 | 21.9 |  | 8.4
